Measured values reported in patent publication US9440930B2, “Substituted bicyclic dihydropyrimidinones and their use as inhibitors of neutrophil elastase activity” (Boehringer Ingelheim International GmbH, priority 2014, dated 2016).
Values belong to the compound of their own block, whether it stands above or below them.

Key:
[1] = molecular target: T1, Human neutrophil elastase (Homo sapiens, UniProt P08246); assay: Human Neutrophil Elastase Assay; format: biochemical; details: substrate MeOSuc-Ala-Ala-Pro-Val-AMC 250 μM, pH 7.5, room temperature
T1 construct: purchased Calbiochem 324681
T1 sequence (P08246 30-247 limits assumed): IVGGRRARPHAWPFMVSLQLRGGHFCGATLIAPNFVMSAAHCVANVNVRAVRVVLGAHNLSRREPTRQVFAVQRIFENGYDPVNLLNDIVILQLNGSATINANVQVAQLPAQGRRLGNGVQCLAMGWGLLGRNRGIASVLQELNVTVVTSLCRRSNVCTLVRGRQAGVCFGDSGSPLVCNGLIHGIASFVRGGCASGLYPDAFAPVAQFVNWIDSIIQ
Description: Human Neutrophil Elastase Assay

[2] = Drug transport across human Caco-2 cells; format: in vitro ADME; details: pH 7.2, 37° C.; for Papp A→B at 10 µM: apical-to-basal, read-out: PEAB; for Papp B→A at 10 µM: basal-to-apical, read-out: PEBA
Description: Assay for Determination of Drug Transport Across Human Caco-2 Cells
The assay provides information on the potential of a compound to pass the cell membrane, on the extent of oral absorption as well as on whether the compound is actively transported by uptake and/or efflux transporters. For the measurement of permeability across polarized, confluent human cancer colon carcinoma cells 2 (Caco-2) cell monolayers grown on permeable filter supports are used as the in vitro absorption model.
Apparent permeability coefficients (PE) of the compounds across the Caco-2 monolayers are measured (pH 7.2, 37° C.) in apical-to-basal (AB) (absorptive) and basal-to-apical (BA) (secretory) transport direction. AB permeability (PEAB) represents drug absorption from the intestine into the blood and BA permeability (PEBA) drug secretion from the blood back into the intestine via both passive permeability as well as active transport mechanisms mediated by efflux and uptake transporters that are expressed on the Caco-2 cells. The compounds are assigned to permeability/absorption classes by comparison of the AB permeabilities with the AB permeabilities of reference compounds with known in vitro permeability and oral absorption in the human. Identical or similar permeabilities in both transport directions indicate passive permeation, vectorial permeability points to additional active transport mechanisms. […] Active transport is concentration-dependently saturable.
Caco-2 cells (1-2*10^5 cells/cm^2 area) are seeded on filter inserts (Costar transwell polycarbonate or PET filters, 0.4 μm pore size) and cultured (DMEM) for 10 to 25 days. Compounds are dissolved in appropriate solvent (like DMSO, 1-20 min stock solutions). Stock solutions are diluted with HTP-4 buffer (128.13 min NaCl, 5.36 min KCl, 1 mM MgSO4, 1.8 min CaCl2, 4.17 min NaHCO3, 1.19 min Na2HPO4×7H2O, 0.41 mM NaH2PO4×H2O, 15 min HEPES, 20 min glucose, pH 7.2) to prepare the transport solutions (typically 10 μM compound, final DMSO<=0.5%). The transport solution (TL) is applied to the apical or basolateral donor side for measuring A-B or B-A permeability (3 filter replicates), respectively. The receiver side contains HTP-4 buffer supplemented with 2% BSA. Samples are collected at the start and end of experiment from the donor and at various time intervals for up to 2 hours also from the receiver side for concentration measurement by LC-MS/MS or scintillation counting. Sampled receiver volumes are replaced with fresh receiver solution.

[3] = molecular target: T2, neutrophil elastase in human plasma (Homo sapiens, UniProt P08246); assay: Neutrophil elastase inhibitory activity in human plasma; format: biochemical; details: zymosan-stimulated human plasma, substrate MeOSuc-Ala-Ala-Pro-Val-AMC 250 μM
T2 construct: The stimulated blood is centrifuged to generate the neutrophil elastase enriched plasma; from tissue; host or cells: plasma from zymosan-stimulated citrated whole blood of healthy human donors
T2 sequence (P08246 30-267): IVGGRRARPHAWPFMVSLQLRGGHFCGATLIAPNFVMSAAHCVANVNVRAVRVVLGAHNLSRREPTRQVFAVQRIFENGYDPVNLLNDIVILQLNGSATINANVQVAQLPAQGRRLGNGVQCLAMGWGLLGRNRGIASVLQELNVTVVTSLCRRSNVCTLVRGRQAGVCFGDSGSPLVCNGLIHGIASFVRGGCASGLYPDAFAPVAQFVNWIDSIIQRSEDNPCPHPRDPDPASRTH
Protocol: Assay for the Determination of Neutrophil Elastase Inhibitory Activity in Human Plasma
Citrated blood from human healthy donors is mixed with zymosan suspension and incubated at room temperature. This leads to the stimulation of neutrophils and the release of neutrophil elastase into the plasma. The stimulated blood is centrifuged to generate the neutrophil elastase enriched plasma.
• A single 45 ml blood sample is taken into a 50 ml tube containing citrate (3.13%, 5 mL) and the tube is gently inverted 4 times. • Immediately after blood sampling, zymosan working solution (5 mL) is added. • After the addition of zymosan working solution, the tubes are capped, mixed gently and incubated at 22° C. for 15 min on a shaker at 20 rpm. • Make 10 ml aliquots after the incubation time. • Centrifuge the 15 ml tubes at 800 g for 15 min at 4° C. in a Jouan centrifuge. • Harvest the plasma and make 1-5 ml aliquots. • Store the plasma at −80° C.
A dose response curve is generated to calculate the EC50 of the inhibitor. The analysis of the data is performed by the calculation of the percentage of fluorescence in the presence of the test compound compared to the fluorescence of the vehicle control after subtracting the background fluorescence: An inhibitor of the neutrophil elastase enzyme will give values between 100% control (no inhibition) and 0% control (complete inhibition).

[4] = Metabolic stability with human liver microsomes; format: in vitro ADME; details: pooled human liver microsomes, pH 7.6; human liver microsomes 1 mg/ml, 1 μM compound, 37° C., NADPH; read-out: t1/2 INVITRO

SMILES: CN1C(=O)N(c2cccc(C(F)(F)F)c2)C2=C(C(=O)CCC2)C1c1ccc(C#N)cc1[S+](C)[O-] (single isomer, unassigned) [Example 2.2B, 3-Methanesulfinyl-4-[3-methyl-2,5-dioxo-1-(3-trifluoromethyl-phenyl)-1,2,3,4,5,6,7,8-octahydro-quinazolin-4-yl]-benzonitrile]
IC50 [1]: 100 nM

SMILES: CN1C(=O)N(c2cccc(C(F)(F)F)c2)C2=C(C(=O)CCC2)C1c1ccc(C#N)cc1[S+](C)[O-] (single isomer, unassigned) [Example 2.1B, 3-Methanesulfinyl-4-[3-methyl-2,5-dioxo-1-(3-trifluoromethyl-phenyl)-1,2,3,4,5,6,7,8-octahydro-quinazolin-4-yl]-benzonitrile]
IC50 [1]: 134 nM

SMILES: C[S+]([O-])c1cc(C#N)ccc1C1NC(=O)N(c2cccc(C(F)(F)F)c2)C2=C1C(=O)CCC2 (single isomer, unassigned) [Example 1.2, 4-[2,5-Dioxo-1-(3-trifluoromethyl-phenyl)-1,2,3,4,5,6,7,8-octahydro-quinazolin-4-yl]-3-methanesulfinyl-benzonitrile]
IC50 [1]: 4.2 nM

SMILES: C[S+]([O-])c1cc(C#N)ccc1C1NC(=O)N(c2cccc(C(F)(F)F)c2)C2=C1C(=O)CCC2 (single isomer, unassigned) [Example 1.1, 4-[2,5-Dioxo-1-(3-trifluoromethyl-phenyl)-1,2,3,4,5,6,7,8-octahydro-quinazolin-4-yl]-3-methanesulfinyl-benzonitrile]
IC50 [1]: 2 nM

SMILES: C[S+]([O-])c1cc(C#N)ccc1C1NC(=O)N(c2cccc(C(F)(F)F)c2)C2=C1C(=O)CCC2 (single isomer, unassigned) [Example 1.1B, 4-[2,5-Dioxo-1-(3-trifluoromethyl-phenyl)-1,2,3,4,5,6,7,8-octahydro-quinazolin-4-yl]-3-methanesulfinyl-benzonitrile]
IC50 [1]: 7.4 nM

SMILES: CNC(=O)N1C(=O)N(c2cccc(C(F)(F)F)c2)C2=C(C(=O)CCC2)C1c1ccc(C#N)cc1[S+](C)[O-] (single isomer, unassigned) [Example 3.2, 4-(4-Cyano-2-methanesulfinyl-phenyl)-2,5-dioxo-1-(3-trifluoromethyl-phenyl)-1,4,5,6,7,8-hexahydro-2H-quinazoline-3-carboxylic acid methylamide]
IC50 [1]: < 1 nM

SMILES: C[S+]([O-])c1cc(C#N)ccc1C1NC(=O)N(c2cccc(C(F)(F)F)c2)C2=C1C(=O)CCC2 (single isomer, unassigned) [Example 1.1A, 4-[2,5-Dioxo-1-(3-trifluoromethyl-phenyl)-1,2,3,4,5,6,7,8-octahydro-quinazolin-4-yl]-3-methanesulfinyl-benzonitrile]
IC50 [1]: < 1 nM

SMILES: CNC(=O)N1C(=O)N(c2cccc(C(F)(F)F)c2)C2=C(C(=O)CCC2)C1c1ccc(C#N)cc1[S+](C)[O-] (single isomer, unassigned) [Example 3.1, 4-(4-Cyano-2-methanesulfinyl-phenyl)-2,5-dioxo-1-(3-trifluoromethyl-phenyl)-1,4,5,6,7,8-hexahydro-2H-quinazoline-3-carboxylic acid methylamide]
IC50 [1]: < 1 nM

SMILES: CN1C(=O)N(c2cccc(C(F)(F)F)c2)C2=C(C(=O)CCC2)C1c1ccc(C#N)cc1[S+](C)[O-] (single isomer, unassigned) [Example 2.2, 3-Methanesulfinyl-4-[3-methyl-2,5-dioxo-1-(3-trifluoromethyl-phenyl)-1,2,3,4,5,6,7,8-octahydro-quinazolin-4-yl]-benzonitrile]
IC50 [1]: 1.2 nM

SMILES: CN1C(=O)N(c2cccc(C(F)(F)F)c2)C2=C(C(=O)CCC2)C1c1ccc(C#N)cc1[S+](C)[O-] (single isomer, unassigned) [Example 2.1, 3-Methanesulfinyl-4-[3-methyl-2,5-dioxo-1-(3-trifluoromethyl-phenyl)-1,2,3,4,5,6,7,8-octahydro-quinazolin-4-yl]-benzonitrile]
IC50 [1]: < 1 nM

More lines, now with the values ahead:

IC50 [1]: 7 nM
SMILES: N#Cc1ccc(C2NC(=O)N(c3cccc(C(F)(F)F)c3)C3=C2C(=O)CCC3)c(S(=O)(=O)CCO)c1 (stereo not shown) [Example 4, 4-[2,5-Dioxo-1-(3-trifluoromethyl-phenyl)-1,2,3,4,5,6,7,8-octahydro-quinazolin-4-yl]-3-(3-hydroxy-ethane-1-sulfonyl)-benzonitrile]

IC50 [1]: 11 nM
SMILES: COCCS(=O)(=O)c1cc(C#N)ccc1C1NC(=O)N(c2cccc(C(F)(F)F)c2)C2=C1C(=O)CCC2 (stereo not shown) [Example 4.2]

Papp A→B at 10 µM [2]: 12 ×10⁻⁶ cm/s | Papp B→A at 10 µM [2]: 89 ×10⁻⁶ cm/s | EC50 [3]: 1 nM | half-life at 1 μM [4]: 1.23 h | IC50 [1]: 1 nM
SMILES: CS(=O)(=O)c1cc(C#N)ccc1C1C2=C(CCCC2=O)N(c2cccc(C(F)(F)F)c2)C(=O)N1CC1COC1 (single isomer, unassigned) [Example 5A, 3-Methanesulfonyl-4-[3-oxetan-3-ylmethyl-2,5-dioxo-1-(3-trifluoromethyl-phenyl)-1,2,3,4,5,6,7,8-octahydro-quinazolin-4-yl]-benzonitrile]

IC50 [1]: 157 nM
SMILES: CS(=O)(=O)c1cc(C#N)ccc1C1C2=C(CCCC2=O)N(c2cccc(C(F)(F)F)c2)C(=O)N1CC1COC1 (single isomer, unassigned) [Example 5B, 3-Methanesulfonyl-4-[3-oxetan-3-ylmethyl-2,5-dioxo-1-(3-trifluoromethyl-phenyl)-1,2,3,4,5,6,7,8-octahydro-quinazolin-4-yl]-benzonitrile]

IC50 [1]: 5.6 nM
SMILES: N#Cc1ccc(C2NC(=O)N(c3cccc(C(F)(F)F)c3)C3=C2C(=O)CCC3)c(S(=O)(=O)CCCO)c1 (stereo not shown) [Example 4.1]

IC50 [1]: 1 nM
SMILES: CN1C(=O)N(c2cccc(C(F)(F)F)c2)C2=C(C(=O)CCC2)C1c1ccc(C#N)cc1CO (stereo not shown) [Example 7, 3-Hydroxymethyl-4-[3-methyl-2,5-dioxo-1-(3-trifluoromethyl-phenyl)-1,2,3,4,5,6,7,8-octahydro-quinazolin-4-yl]-benzonitrile]

Papp A→B at 10 µM [2]: 8.4 ×10⁻⁶ cm/s | Papp B→A at 10 µM [2]: 110 ×10⁻⁶ cm/s | EC50 [3]: 2 nM | half-life at 1 μM [4]: 1.67 h | IC50 [1]: < 1 nM
SMILES: CN1C(=O)N(c2cccc(C(F)(F)F)c2)C2=C(C(=O)CCC2)C1c1ccc(C#N)cc1S(=O)(=O)CCCO (stereo not shown) [Example 4.4]
